Values of other authors in patent US20130158016A1, “ANESTHETIC ASSOCIATION, ANESTHETIC COMPOSITION, AND […] VETERINARY USE” (Ouro Fino Participacoes e Empreendimentsos S/A, priority 2010, published 2013).

System: female dogs
Conditions: 2 mg/kg intravenously (slow), prophylactic

## COc1cccc(C2(O)CCCCC2CN(C)C)c1 (stereo not drawn) [tramadol]
  analgesia after ovariosalpingohisterectomy: analgesia similar to that produced by morphine
  effect on expired concentration of isoflurane: reducing the expired concentration of isoflurane
  neuroendocrine response to pain (catecholamine and cortisol): reducing the peaks of catecholamine and cortisol
